Measured values as given in patent US8586098B2, “Loading of hydrophobic drugs into hydrophilic polymer delivery systems” (Biocompatibles UK Limited, priority 2006, dated 2013).
≈ marks a conversion by molar mass, not a printed value. Where two headings read alike, the source gives them in different places.

Key:
[1] = solubility in water at room temperature; assay type: physicochemical; settings: for Sol^y in water: room temperature
Text: For these compounds the following table gives comparison water and solvent solubilities at room temperature.

[2] = solubility in DMSO at room temperature; assay type: physicochemical; settings: for Sol^y in DMSO / Sol^y Ratio: room temperature; for Sol^y Ratio: solubility in solvent (DMSO):solubility in water
Text: For these compounds the following table gives comparison water and solvent solubilities at room temperature. […]

[3] = benzyl alcohol, chloroform, acetone, acetonitrile; cited from earlier work
[4] = background description; cited from earlier work
[5] = background description; cited from earlier work; remark: listed apart in the source

Sol^y in DMSO [2]	Sol^y Ratio [2]	solubility in water (in words) ([1]; Example 3)	solubility ([2]; DMSO, organic solvent or mixture, room temp, Example 3)	SMILES	Sol^y in water [1]	solubility in organic solvents (in words) [3]	solubility in water (in words) [4]	lipophilicity (in words) [5]
200 g/L	>5 × 10^4			CN(Cc1cnc2nc(N)nc(N)c2n1)c1ccc(C(=O)N[C@@H](CCC(=O)O)C(=O)O)cc1 [Methotrexate]	insol (insoluble means less than 10 mg/l)			
600 g/L	>10^5	practically insoluble in water	~60 mg/mL (≈ 153 mM)	C[C@@H]1C[C@H]2[C@@H]3CCC4=CC(=O)C=C[C@]4(C)[C@@]3(F)[C@@H](O)C[C@]2(C)[C@@]1(O)C(=O)CO [Dexamethasone]	insol (insoluble means less than 10 mg/l)			
25 g/L	>4 × 10^4			CO[C@H]1C[C@@H]2CC[C@@H](C)[C@@](O)(O2)C(=O)C(=O)N2CCCC[C@H]2C(=O)O[C@H]([C@H](C)C[C@@H]2CC[C@@H](O)[C@H](OC)C2)CC(=O)[C@H](C)/C=C(\C)[C@@H](O)[C@@H](OC)C(=O)[C@H](C)C[C@H](C)/C=C/C=C/C=C/1C [Rapamycin]	0.69 mg/L	freely soluble in benzyl alcohol, chloroform, acetone, and acetonitrile	insoluble in water	
50 g/L				CC(=O)O[C@H]1C(=O)[C@@]2(C)[C@H]([C@H](OC(=O)c3ccccc3)[C@]3(O)C[C@H](OC(=O)[C@H](O)[C@@H](NC(=O)c4ccccc4)c4ccccc4)C(C)=C1C3(C)C)[C@]1(OC(C)=O)CO[C@@H]1C[C@@H]2O [Paclitaxel, 5β,20-Epoxy-1,2α,4,7β,10β,13α-hexahydroxytax-11-en-9-one 4,10-diacetate-2-benzoate 13-ester with (2R,3S)—N-benzoyl-3-phenylisoserine]	0.3 to 30 mg/L		insoluble in water	highly lipophilic

SMILES	Sol^y in DMSO [2]	Sol^y Ratio [2]	solubility in water (in words) ([1]; Example 3)	solubility ([2]; DMSO, organic solvent or mixture, room temp, Example 3)	Sol^y in water [1]	solubility in organic solvents (in words) [3]	solubility in water (in words) [4]	lipophilicity (in words) [5]
CC[C@@]1(O)C(=O)OCc2c1cc1n(c2=O)Cc2cc3ccccc3nc2-1 [Camptothecin]	10 g/L	>10^3			insol (insoluble means less than 10 mg/l)			
